Reference: patent US9777002B2, “Inhibitors of the renal outer medullary potassium channel” (Merck Sharp & Dohme Corp., priority 2012, dated 2017)

Target: T1, hROMK (hKir1.1) (Homo sapiens, UniProt P48048)
T1 construct: expressed in transfected cells
T1 sequence (P48048 1-391): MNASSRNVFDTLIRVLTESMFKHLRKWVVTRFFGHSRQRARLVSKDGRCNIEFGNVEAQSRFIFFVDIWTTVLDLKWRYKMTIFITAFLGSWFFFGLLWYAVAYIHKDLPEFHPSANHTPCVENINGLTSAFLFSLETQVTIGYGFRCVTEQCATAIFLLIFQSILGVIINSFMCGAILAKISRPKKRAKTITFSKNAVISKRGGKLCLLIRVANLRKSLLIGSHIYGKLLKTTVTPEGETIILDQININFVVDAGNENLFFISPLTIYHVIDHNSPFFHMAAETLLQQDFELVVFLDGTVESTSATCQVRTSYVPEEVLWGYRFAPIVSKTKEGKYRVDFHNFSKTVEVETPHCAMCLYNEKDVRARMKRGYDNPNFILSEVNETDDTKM
Experiment: Thallium Flux Assay
Assay type: cell-based
Conditions: HEK293 cells stably expressing hROMK (hKir1.1)
Description: Cell Culture Conditions—HEK293 cells stably expressing hROMK (hKir1.1) were grown at 37° C. in a 10% CO2 humidified incubator in complete growth media: Dulbecco's Modified Eagle Medium supplemented with non-essential amino acids, Penicillin/Streptomycin/Glutamine, G418 and FBS. At >80% confluency, aspirate the media from the flask and rinse with 10 mL Calcium/Magnesium-free PBS. Add 5 mL of 1× trypsin (prepared in Ca/Mg Free PBS) to T-225 flask and return flask to 37° C./CO2 incubator for 2-3 minutes. To dislodge the cell, gently bang the side of the flask with your hand. Triturate the cells completely and then transfer the cells to 25 mL complete media. Centrifuge at 1,500 rpm for 6 min followed by resuspension in complete growth media and determine cell concentration. For typical re-seeding, 4E6 cells/T-225 flask will attain >80% confluency in 4 days. Under ideal growth conditions and appropriate tissue culture practices, this cell line is stable for 40-45 passages.
FluxOR Kit Components (Invitrogen F10017)
• FluxOR™ Reagent (Component A) • FluxOR™ Assay Buffer (Component B)—10× Concentrate • PowerLoad™ Concentrate (Component C)—100× Concentrate • Probenecid (Component D)—Lyophilized sample is kept at −20° C. Water soluble, 100× after solubilization in 1 mL water. Store at 4° C. • FluxOR™ Chloride-free Buffer (Component E)—5× Concentrate • Potassium sulfate (K2SO4) Concentrate (Component F)—125 mM in water. Store at 4° C. • Thallium sulfate (Tl2SO4) Concentrate (Component G)—50 mM in water. Store at 4° C. • DMSO (dimethyl sulfoxide, Component H)—1 mL (100%) Reagent Preparation: FluxOR Working Solutions • 1000× FluxOR™ Reagent: Reconstitute a vial of component A in 100 μl DMSO; Mix well; Store 10 μl aliquots at −20° C. • 1× FluxOR™ Assay Buffer: Dilute Component B 10-fold with water; Adjust pH to 7.4 with Hepes/NaOH; Filter and store at 4° C. • Probenecid/Assay Buffer: 100 mL of 1× FluxOR™ Assay Buffer; 1 mL of reconstituted component D; Store at 4° C. • Loading Buffer (per microplate): 10 μl 1000× FluxOR™ Reagent; 100 μl component C; 10 mL Probenecid/Assay Buffer • Compound Buffer (per microplate): 20 mL Probenecid/Assay Buffer; 0.3 mM ouabain (10 mM ouabain in water can be stored in amber bottle/aluminum foil at room temperature); Test compound • 1× FluxOR™ Chloride-Free Buffer: Prepare 1× working solution in water. Can be stored at room temperature • Stimulant Buffer (prepared at 5× final concentration in 1× FluxOR™Chloride-Free Buffer): 7.5 mM Thallium sulfate and 0.75 mM Potassium sulfate (to give a final assay concentration of 3 mM Thallium/0.3 mM Potassium). Store at 4° C. when not in use. If kept sterile, this solution is good for months.
Assay Protocol—The ROMK channel functional thallium flux assay is performed in 384 wells, using the FLIPR-Tetra instrument. HEK-hKir1.1 cells are seeded in Poly-D-Lysine microplates and kept in a 37° C.-10% CO2 incubator overnight. On the day of the experiment, the growth media is replaced with the FluxOR™ reagent loading buffer and incubated, protected from light, at ambient temperature (23-25° C.) for 90 min. The loading buffer is replaced with assay buffer± test compound followed by 30 min incubation at ambient temperature, where the Thallium/Potassium stimulant is added to the microplate.
• 1. Seed HEK-hKir1.1 cells (50 μl at 20,000 cells/well) in 384-well PDL coated Microplates • 2. Allow cells to adhere overnight in humidified 37° C./10% CO2 incubator • 3. Completely remove cell growth media from microplate and replace with 25 μl loading buffer • 4. Incubate Microplate at room temperature, protected form light, for 90 min • 5. Remove loading buffer and replace with 25 μl 1× Assay Buffer±test compound. • 6. Incubate microplate at room temperature, protected from light, for 30 min • 7. At FLIPR-Tetra 384: Add stimulant (Thallium/Potassium) solution to microplate and monitor fluorescence. Excitation=400 nm, Emission=460 & 580 nm. Collect data for ˜10 min. […]

IC50 [nM]	SMILES
530	Cc1c([C@@H](O)CN2CCC3(CC2)CCN3C(=O)c2ccc(-n3cnnn3)cn2)ccc2c1COC2=O [Example 55, (R)-5-(2-(1-(5-(1H-Tetrazol-1-yl)picolinoyl)-1,7-diazaspiro[3.5]nonan-7-yl)-1-hydroxyethyl)-4-methylisobenzofuran-1(3H)-one]
600	Cc1c(CCN2CCC(N(C)C(=O)c3ccc4c(c3)COC4=O)CC2)ccc2c1COC2=O [Example 2, N-Methyl-N-(1-(2-(4-methyl-1-oxo-1,3-dihydroisobenzofuran-5-yl)ethyl)piperidin-4-yl)-1-oxo-1,3-dihydroisobenzofuran-5-carboxamide]
860	Cc1cc(C(=O)NC2(C)CCN(C[C@H](O)c3ccc4c(c3C)COC4=O)CC2)ncc1-n1cnnn1 [Example 63, (R)-N-(1-(2-Hydroxy-2-(4-methyl-1-oxo-1,3-dihydroisobenzofuran-5-yl)ethyl)-4-methylpiperidin-4-yl)-4-methyl-5-(1H-tetrazol-1-yl)picolinamide]
370	Cc1c([C@@H](O)CN2CC[C@@H](NC(=O)c3ccc(-n4cnnn4)cn3)C2)ccc2c1COC2=O [Example 62, N-((R)-1-((R)-2-Hydroxy-2-(4-methyl-1-oxo-1,3-dihydroisobenzofuran-5-yl)ethyl)pyrrolidin-3-yl)-5-(1H-tetrazol-1-yl)picolinamide]
30	Cc1c(CCN2CCC(NC(=O)c3ccc(C#N)c(F)c3)CC2)ccc2c1COC2=O [Example 11, 4-Cyano-3-fluoro-N-(1-(2-(4-methyl-1-oxo-1,3-dihydroisobenzofuran-5-yl)ethyl)piperidin-4-yl)benzamide]
100	Cc1c([C@@H](O)CN2CCC(NC(=O)c3ncc(C#N)c4ccccc34)CC2)ccc2c1COC2=O [Example 42, (R)-4-Cyano-N-(1-(2-hydroxy-2-(4-methyl-1-oxo-1,3-dihydroisobenzofuran-5-yl)ethyl)piperidin-4-yl)isoquinoline-1-carboxamide]
270	Cc1c([C@@H](O)CN2CCC(NC(=O)c3ccc(-n4cccn4)nc3)CC2)ccc2c1COC2=O [Example 73, (R)-N-(1-(2-Hydroxy-2-(4-methyl-1-oxo-1,3-dihydroisobenzofuran-5-yl)ethyl)piperidin-4-yl)-6-(1H-pyrazol-1-yl)nicotinamide]
120	Cc1c(CCN2CCC(NC(=O)c3cccc(-n4cnnn4)c3)CC2)ccc2c1COC2=O [Example 30, N-(1-(2-(4-Methyl-1-oxo-1,3-dihydroisobenzofuran-5-yl)ethyl)piperidin-4-yl)-3-(1H-tetrazol-1-yl)benzamide]
30	Cc1c([C@@H](O)CN2CCC(N3Cc4cc([N+](=O)[O-])ccc4C3=O)CC2)ccc2c1COC2=O [Example 88, (R)-2-(1-(2-Hydroxy-2-(4-methyl-1-oxo-1,3-dihydroisobenzofuran-5-yl)ethyl)piperidin-4-yl)-5-nitroisoindolin-1-one]
630	Cc1c([C@@H](O)CN2CCC(CNC(=O)c3ccc(-n4cnnn4)cn3)(c3ccccc3)C2)ccc2c1COC2=O (stereo partly drawn) [Example 68, N-((1-((R)-2-Hydroxy-2-(4-methyl-1-oxo-1,3-dihydroisobenzofuran-5-yl)ethyl)-3-phenylpyrrolidin-3-yl)methyl)-5-(1H-tetrazol-1-yl)picolinamide]
230	Cc1c([C@@H](O)CN2CC[C@H](NC(=O)c3ccc(-n4cnnn4)cn3)C2)ccc2c1COC2=O [Example 61, N-((S)-1-((R)-2-Hydroxy-2-(4-methyl-1-oxo-1,3-dihydroisobenzofuran-5-yl)ethyl)pyrrolidin-3-yl)-5-(1H-tetrazol-1-yl)picolinamide]
630	Cc1c([C@@H](O)CN2CCC(NC(=O)c3ccc(-n4cncn4)cc3)CC2)ccc2c1COC2=O [Example 74, (R)-N-(1-(2-Hydroxy-2-(4-methyl-1-oxo-1,3-dihydroisobenzofuran-5-yl)ethyl)piperidin-4-yl)-4-(1H-1,2,4-triazol-1-yl)benzamide]
30	COc1ccc(C(=O)NC2CCN(CCc3ccc4c(c3C)COC4=O)CC2)cc1C#N [Example 9, 3-Cyano-4-methoxy-N-(1-(2-(4-methyl-1-oxo-1,3-dihydroisobenzofuran-5-yl)ethyl)piperidin-4-yl)benzamide]
80	Cc1c([C@@H](O)CN2CCC(C)(NC(=O)c3cnc(-n4cnnn4)cn3)CC2)ccc2c1COC2=O [Example 72, (R)-N-(1-(2-Hydroxy-2-(4-methyl-1-oxo-1,3-dihydroisobenzofuran-5-yl)ethyl)-4-methylpiperidin-4-yl)-5-(1H-tetrazol-1-yl)pyrazine-2-carboxamide]
70	Cc1nc(C(=O)NC2CCN(C[C@H](O)c3ccc4c(c3C)COC4=O)CC2)ccc1C#N [Example 41, (R)-5-Cyano-N-(1-(2-hydroxy-2-(4-methyl-1-oxo-1,3-dihydroisobenzofuran-5-yl)ethyl)piperidin-4-yl)-6-methylpicolinamide]
740	Cc1c([C@@H](O)CN2CCC(C3(NC(=O)c4ccc(-n5cnnn5)nc4)CCC3)C2)ccc2c1COC2=O (single isomer, unassigned) [90 A]
50	Cc1cc(C(=O)NC2CCN(CCc3ccc4c(c3C)COC4=O)CC2)ncc1C#N [Example 19, 5-Cyano-4-methyl-N-(1-(2-(4-methyl-1-oxo-1,3-dihydroisobenzofuran-5-yl)ethyl)piperidin-4-yl)picolinamide]
180	Cc1c([C@@H](O)CN2CC[C@H](NC(=O)c3ccc(C#N)cn3)[C@H](F)C2)ccc2c1COC2=O (single isomer, unassigned) [43 B]
160	Cc1cc(C(=O)N[C@H]2CCN(C[C@H](O)c3ccc4c(c3C)COC4=O)C[C@H]2F)ccc1C#N (single isomer, unassigned) [47 A]
100	Cc1c([C@@H](O)CN2CC[C@H](NC(=O)c3ccc(-n4cnnn4)nc3)[C@H](F)C2)ccc2c1COC2=O (single isomer, unassigned) [50 A]
150	Cc1c([C@@H](O)CN2CCC(NC(=O)c3ccc(C#N)nc3)CC2)ccc2c1COC2=O [Example 24, (R)-6-Cyano-N-(1-(2-hydroxy-2-(4-methyl-1-oxo-1,3-dihydroisobenzofuran-5-yl)ethyl)piperidin-4-yl)nicotinamide]
370	Cc1cc(C(=O)NCC2CCN(C[C@H](O)c3ccc4c(c3C)COC4=O)C2)ncc1-n1cnnn1 (stereo partly drawn) [Example 85, N-((1-((R)-2-Hydroxy-2-(4-methyl-1-oxo-1,3-dihydroisobenzofuran-5-yl)ethyl)pyrrolidin-3-yl)methyl)-4-methyl-5-(1H-tetrazol-1-yl)picolinamide]
